# Test results taken from paper PMC12055641, “The Study of Antistaphylococcal Potential of Omiganan and Retro-Omiganan Under Flow Conditions” (Probiotics and Antimicrobial Proteins, 2024).
# No end group written: not given here.
# Key:
# [1] = test system: S. aureus ATCC 33591 (MRSA) biofilm; details: ATCC 33591, 24 h
# Source text: (§1) Clinical S. aureus strains were collected from patients with atopic dermatitis during their visits to the Outpatient Clinic and hospitalization in the Department of Dermatology, Venereology and Allergology at Medical University of Gdańsk (following the approval from the ethics committee, Approval Number NKBBN/242–477/2014). Reference strains of S. aureus ATCC 25923, S. aureus ATCC 33591, S. aureus ATCC 9144, and S. aureus ATCC 12598 were obtained from the American Type Culture Collection. All the strains were stored at − 80 °C in Roti®-Store cryo vials (Carl Roth GmbH, Karlsruhe, Germany) and before the tests were transferred into fresh Mueller–Hinton Medium (BioMaxima, Lublin, Poland) and incubated for 24 h at 37 °C. Subsequently, each bacterial inoculum was seeded on Mueller–Hinton agar plates (BioMaxima) and incubated again for 24 h. The cultures prepared in this way were used in further antimicrobial assays. Minimum inhibitory concentrations (MICs) were determined according to the Clinical and Laboratory Standards Institute recommendations. […] The experiments were conducted on 96-well microtiter plates, with a final volume of 100 μL. Additionally, in the case of daptomycin, the medium was supplemented with Ca^2+ (50 mg/L). Cell densities were adjusted spectrophotometrically (Multiskan™ GO Microplate Spectrophotometer, Thermo Scientific) at 600 nm. The MICs were taken as the lowest drug concentration at which a visible growth of the microorganisms was inhibited. Minimum biofilm eliminating concentrations (MBECs) were determined on 96-well flat-bottomed microtiter polystyrene plates with resazurin (7-hydroxy-3H-phenoxazin-3-one 10-oxide sodium salt) as a cell viability reagent. To do this, the plates were filled with 100 μL of the initial inoculums of bacteria (0.5 × 10^7 CFU/mL) in the Mueller–Hinton broth and incubated for 24 h at 37 °C. […] After 24 h of incubation, 20 μL of resazurin (4 mg/mL) was added to each well and the MBEC values were read. Minimum biofilm inhibitory concentrations (MBICs) were also determined on 96-well flat-bottomed microtiter polystyrene plates as described previously. To do this, 50 μL of the compounds in the concentration range, diluted MHB, were prepared. Subsequently, the 50 μL of the staphylococcal inoculums were added to reach the same density of bacteria as that in the MBEC assay. After 24 h of incubation at 37 °C, the wells were rinsed three times with PBS and the fresh medium (100 μL) with resazurin (0.6 mg/mL) was added. Then, after 1 h of incubation, MBICs were read. […] All experiments were conducted in triplicate.
# [2] = test system: S. aureus clinical strain 004N (MRSA) biofilm; details: clinical strain 004N biofilm, 24 h
# Source text: as §1
# [3] = test system: S. aureus clinical strain 004N (MRSA); details: 24 h
# Source text: as §1
# [4] = test system: S. aureus ATCC 33591 (MRSA); details: ATCC 33591, 24 h
# Source text: as §1
# [5] = test system: S. aureus clinical strain 043SC (MRSA); details: 24 h
# Source text: as §1
# [6] = test system: reference and clinical strains of staphylococci (S. aureus); details: 24 h
# Source text: as §1
# [7] = test system: S. aureus clinical strain 015N (MRSA); details: 24 h
# Source text: as §1
# [8] = test system: S. aureus clinical strain 015N (MRSA) biofilm; details: clinical strain 015N biofilm, 24 h
# Source text: as §1
# [9] = test system: S. aureus clinical strain 043SC (MRSA) biofilm; details: clinical strain 043SC biofilm, 24 h
# Source text: as §1
# [10] = test system: S. aureus clinical strain 051N (MRSA) biofilm; details: clinical strain 051N biofilm, 24 h
# Source text: as §1
# [11] = test system: biofilm of reference and clinical strains of staphylococci (S. aureus); details: for mean MBEC (initial values): 24 h
# Source text: as §1
# [12] = test system: S. aureus clinical strain 051N (MRSA); details: 24 h
# Source text: as §1
# Hemolysis assay = type: cell-based; details: human, human red blood cells (RBCs), 64 μg/mL (lowest concentration causing hemolysis > 10%); read-out: degree of hemolysis
# Method: The hemolysis assay was conducted using a procedure described previously. […] The control wells for 0% hemolysis and 100% hemolysis consisted of RBCs suspended in PBS and 1% of Triton X-100, respectively. […] After centrifugation, the supernatant was carefully […] to new microtiter plates and the release of hemoglobin was monitored by absorbance readings at 540 nm (MultiskanTM GO Microplate Spectrophotometer, Thermo Scientific). All experiments were conducted in triplicate. Blood collection was approved by Medical University of Gdańsk ethics committee (Consent Number: NKBBN/264/2019).
# [13] = test system: human keratinocytes (HaCaT); type: cell-based; details: 24 h
# Method: To evaluate the cytotoxicity of the peptides (IC50), the classic MTT assay on 96-well plates was performed for human keratinocytes (HaCaT) which were acquired from the ATCC. The assay utilizes colorimetric determination of the cell metabolic activity, and the color intensity reflects the number of live cells that can be measured spectrophotometrically. […] DMSO was added to the control cells at a final concentration of 1.0% (v/v), which was related to the maximum concentration of the solvent compounds used in the experiment. After 24 h of incubation at 37 °C (humidified 5% CO2 incubator) with the peptides, a medium containing 1 mg/mL of MTT was added to the wells up to a final concentration of 0.5 mg/mL. Subsequently, the plates were incubated at 37 °C for 4 h. Then, the medium was aspirated, and the formazan product was solubilized with DMSO. The background absorbance at 630 nm was subtracted from that at 570 nm for each well (Epoch, BioTek Instruments, USA). Six replicates were conducted for each concentration. All experiments were repeated at least twice and the resulting IC50 values were calculated with GraFit 7 software (v. 7.0, Erithacus, Berkley, CA, USA).
# S. aureus ATCC 6538 = details: ATCC 6538, reference strain
# [14] = test system: S. aureus ATCC 6538 biofilm; details: ATCC 6538, reference strain
# [15] = test system: S. aureus clinical strain 060S biofilm
# Source text: as §1
# [16] = test system: S. aureus clinical strain 005S
# Source text: as §1
# [17] = test system: S. aureus clinical strain 031S biofilm
# Source text: as §1
# S. aureus ATCC 25923 = details: ATCC 25923, reference strain
# Source text: as §1
# [18] = test system: S. aureus clinical strain 009S
# Source text: as §1
# [19] = test system: S. aureus clinical strain 060S
# Source text: as §1
# [20] = test system: S. aureus ATCC 9144 biofilm; details: ATCC 9144, reference strain
# Source text: as §1
# [21] = test system: S. aureus clinical strain 009S biofilm
# Source text: as §1
# S. aureus ATCC 9144 = details: ATCC 9144, reference strain
# Source text: as §1
# [22] = test system: S. aureus clinical strain 031S
# Source text: as §1
# [23] = test system: S. aureus clinical strain 030N biofilm
# Source text: as §1
# [24] = test system: S. aureus clinical strain 030N
# Source text: as §1
# [25] = test system: S. aureus ATCC 12598 biofilm; details: ATCC 12598, reference strain
# Source text: as §1
# [26] = test system: S. aureus clinical strain 005S biofilm
# Source text: as §1
# [27] = test system: S. aureus ATCC 25923 biofilm; details: ATCC 25923, reference strain
# Source text: as §1
# S. aureus ATCC 12598 = details: ATCC 12598, reference strain
# Source text: as §1
# [28] = test system: S. aureus ATCC 6538 biofilm; details: ATCC 6538, reference strain; remark: listed apart in the source
# cells = test system: cells; parameters: method as in PMID 11294848; details: low concentrations; cited from earlier work
substance,measurement,setting,value
KRRWPWWPWRLI-NH2 [Retro-omiganan Cl^−],MBEC,[1],32 µg/mL
same,MBIC,[1],32 µg/mL
same,MBEC,[2],64 µg/mL
same,MBIC,[2],16 µg/mL
same,MIC,[3],16 µg/mL
same,MIC,[4],16 µg/mL
same,MIC,[5],8 µg/mL
same,mean MIC (initial values),[6],8.93 µg/mL
same,MIC,[7],8 µg/mL
same,MBEC,[8],32 µg/mL
same,MBIC,[8],16 µg/mL
same,MBEC,[9],32 µg/mL
same,MBIC,[9],16 µg/mL
same,MBEC,[10],64 µg/mL
same,MBIC,[10],16 µg/mL
same,mean MBEC (initial values),[11],36.57 µg/mL
same,MIC,[12],16 µg/mL
same,"hemolysis at 60 min, 64 μg/mL",Hemolysis assay,16%
same,IC50,[13],26.66 µg/mL
KRRWPWWPWRLI-NH2 [Retro-omiganan TFA^−],MIC,S. aureus ATCC 6538,8 µg/mL
same,MBIC,[14],16 µg/mL
same,MBEC,[1],64 µg/mL
same,MBIC,[1],16 µg/mL
same,MBEC,[15],16 µg/mL
same,MBIC,[15],1 µg/mL
same,MIC,[16],0.5 µg/mL
same,MBEC,[17],16 µg/mL
same,MIC,S. aureus ATCC 25923,8 µg/mL
same,MBEC,[2],64 µg/mL
same,MBIC,[2],16 µg/mL
same,MIC,[18],1 µg/mL
same,MIC,[3],8 µg/mL
same,MIC,[19],1 µg/mL
same,MIC,[4],16 µg/mL
same,MIC,[5],8 µg/mL
same,MBEC,[20],32 µg/mL
same,MBIC,[20],16 µg/mL
same,MBEC,[21],16 µg/mL
same,MBIC,[21],2 µg/mL
same,MIC,S. aureus ATCC 9144,8 µg/mL
same,MIC,[22],2 µg/mL
same,MBEC,[23],32 µg/mL
same,MBIC,[23],8 µg/mL
same,MIC,[24],16 µg/mL
same,mean MIC (initial values),[6],7.18 µg/mL
same,MBEC,[25],32 µg/mL
same,MBIC,[25],16 µg/mL
same,MBEC,[26],16 µg/mL
same,MBIC,[26],2 µg/mL
same,MIC,[7],8 µg/mL
same,MBEC,[8],32 µg/mL
same,MBIC,[8],16 µg/mL
same,MBEC,[9],16 µg/mL
same,MBIC,[9],8 µg/mL
same,MBEC,[27],128 µg/mL
same,MBIC,[27],16 µg/mL
same,MIC,S. aureus ATCC 12598,8 µg/mL
same,MBEC,[10],32 µg/mL
same,MBIC,[10],32 µg/mL
same,mean MBEC (initial values),[11],40.00 µg/mL
same,mean MBIC (initial values),"[11]; average over 14 strains, polystyrene 96-well plates, not corrected",11.82 µg/mL
same,MIC,[12],8 µg/mL
same,MBEC,[28],64 µg/mL
same,IC50,[13],29.51 µg/mL
"indolicidin: antimicrobial peptide derived from bovine neutrophil granules (ILPWKWPWWPWRR; ends and bridges not checked; UniProt P33046 131-143, looked up)",cells with membrane depolarization,cells,up to 75%
